From US20140219995A1, “INHIBITORS OF BACTERIAL TYPE III SECRETION SYSTEM” (priority 2011, published 2014) come the findings set out here.

Where two headings read alike, the source gives them in different places.

The test system of series [1] is T3SS-mediated secretion of ExoS′-βLA fusion protein, P. aeruginosa strain MDM973. The experiment in a line: Effector-β-lactamase (ExoS′-βLA) secretion assay. The class given is cell-based, Pseudomonas aeruginosa. Conditions: Pseudomonas aeruginosa, read-out: Avg. Secretion IC50. An excerpt: Effector-β-Lactamase (βLA) Secretion Assays.
P. aeruginosa. A gene encoding an ExoS'-β-lactamase (βLA) fusion protein (comprised of 234 codons of P. aeruginosa effector ExoS fused to the TEM-1 β-lactamase gene lacking secretion signal codons) was constructed by splicing by overlap extension PCR (SOE-PCR) (Choi and Schweizer, 2005, BMC Microbiol., 5:30) using primers 5-10 (Table 3, above), sequence confirmed, cloned into lacI^Q-containing GATEWAY® vector pUCP24GW (see Moir, et al., 2007, J Biomol. Screen., 12:855-64) behind the lac promoter, and introduced into P. aeruginosa by electroporation (see Choi, et al., 2006, J. Microbiol. Methods, 64:391-7). Secretion of fusion proteins was detected by measuring the hydrolysis of the chromogenic β-lactamase substrate nitrocefin in clear 96-well microplates in a modification of a previously described assay (Lee, et al., 2007, Infect. Immun., 75:1089-98). Cells of strain MDM973 (PAK/pUCP24GW-exoS:blaM) were sub-cultured in the morning from overnight growths in LBG into 0.1 ml of LBGIE with or without test compounds and grown for 150 min. Nitrocefin (100 μg/ml final) was added, and A490 measurements taken every minute for 15 min in a Victor^3V 1420 Multilabel HTS Counter (PerkinElmer). Slopes were calculated as a relative measure of the quantity of the effector-βLA fusion protein secreted and were absolutely dependent on induction with IPTG, EGTA, and the presence of a functional pscC gene in the P. aeruginosa cells. Typical signal:background ratios were 6-10.

Series [2] concerns T3SS-mediated cytotoxicity of translocated effector protein ExoU in CHO cells. Kind of series: Inhibition of P. aeruginosa ExoU-dependent CHO cell killing (translocation, LDH release). Format: cell-based. The settings on record: Pseudomonas aeruginosa, read-out: Avg. Translocation IC50. The source says: Inhibition of P. aeruginosa ExoU-Dependent CHO Cell Killing.
Pseudolipasin, which acts by direct inhibition of the ExoU phospholipase, was used as control inhibitor (Lee, et al, 2007, Infect. Immun., 75:1089-98).
For orientation: LDH leaks from cells whose membrane has failed.

Series [3] is described as follows: Determination of mammalian cytotoxicity (MTS). Format: cell-based. The settings on record: human. As to the method: Determination of Mammalian Cytotoxicity.
See, Marshall, et al., 1995, A critical assessment of the use of microculture tetrazolium assays to measure cell growth and function, Growth Regul., 5:69-84. Briefly, 96-well plates were seeded with HeLa cells at a density of 4×10^3 per well in VP-SFM medium without serum (Frazzati-Gallina, et al., 2001, J. Biotechnol., 92:67-72), in the presence or absence of serial dilutions of a compound dissolved in DMSO. Following incubation for 3 days at 37° C. in VP-SFM, cell viability was measured with the vital tetrazolium salt stain 3-(4,5-dimethylthiazol-2-yl)-2,5 diphenyltetrazolium bromide according to the manufacturer's instructions (Promega, Madison, Wis.). Values were determined in duplicate using dilutions of inhibitory compound from 100 μM to 0.2 μM.

Setting [4] is: Table 4, HeLa cells, 3 days, dilutions from 100 μM to 0.2 μM, read-out: Avg. CC50.

What is called melting point is the temperature of the solid-liquid transition. A word on the IC50: it is the concentration needed to halve the response being measured. One may read the CC50 as the concentration at which the toxic effect on the cells reaches its halfway point. `CC(Oc1ccc(Cl)cc1Cl)C(=O)NCc1ccc2occc2c1` (stereo not drawn) [MBX-2592] showed a melting point of 125 °C. Moreover, the IC50 in series [1] was found to be 2.5 µM. Also, in series [2], the IC50 is above 100 µM. Besides, in series [3] (setting [4]), the CC50 at 3 days worked out at 44 µM.
Consider `CC(Oc1ccc(Cl)cc1Cl)C(=O)NCc1ccc2[nH]cnc2c1` (stereo not drawn) [MBX-2593], for which the melting point is 71 °C. For the same compound, in series [1], the IC50 worked out at 7 µM. In addition, the IC50 in series [2] is 33 µM. Also, in series [3], the CC50 at 3 days was above 100 µM.
In turn, `CC(Oc1ccc(Cl)cc1Cl)C(=O)NCc1ccc2cc[nH]c2c1` (stereo not drawn) [MBX-2594] displayed a melting point of 120 °C. In series [1], the IC50 came to 1.6 µM. Further, the IC50 in series [2] was 5.3 µM. In series [3] (setting [4]), the cytotoxic concentration (CC50) at 3 days came out at 10.4 µM.
In the case of `CC(Oc1ccc(Cl)cc1Cl)C(=O)NC1CCc2cc(F)ccc21` (stereo not drawn) [MBX-2595], the melting point worked out at 135 °C. In addition, the IC50 in series [1] was 16 µM. The IC50 in series [2] was above 100 µM. Further, the CC50 at 3 days in series [3] (setting [4]) was determined as 35 µM.
`Cc1c(-c2ccccc2)[nH]c2ccc(CNC(=O)C(C)Oc3ccc(Cl)cc3Cl)cc12` (stereo not drawn) [MBX-2600] gave a melting point of 68 °C. In addition, the IC50 in series [1] came out at 9 µM. The IC50 in series [2] was 83 µM. This compound also yielded a CC50 at 3 days in series [3] of 24 µM.
`CC(Oc1ccc(Cl)cc1Cl)C(=O)NCCc1c[nH]c2cc(F)ccc12` (stereo not drawn) [MBX-2613]: the melting point came out at 114 °C. In addition, the half-maximal inhibitory concentration (IC50) in series [1] was 12 µM. Further, the half-maximal inhibitory concentration (IC50) in series [2] came out at 10 µM. In series [3], this compound returned a 50% cytotoxic concentration (CC50) at 3 days of 7 µM.
Compound `CC(Oc1ccc(Cl)cc1Cl)C(=O)NC(c1ccc(F)cc1)C1CC1` (stereo not drawn) [MBX-2614] displayed a melting point of 109 °C. Moreover, the half-maximal inhibitory concentration (IC50) in series [1] came out at 1.5 µM. In series [2], the IC50 was determined as 8.4 µM. The CC50 at 3 days in series [3] (setting [4]) was found to be 12.8 µM.
On to `CC(Oc1ccc(Cl)cc1Cl)C(=O)NCc1ccc2[nH]c(CCO)cc2c1` (stereo not drawn) [MBX-2626], for which the melting point came out at 157 °C. The IC50 in series [1] came out at 5.4 µM. Further, the IC50 in series [2] turned out to be 9.2 µM. Also, the CC50 at 3 days in series [3] was above 100 µM.
As for `CC(Oc1ccc(Cl)cc1Cl)C(=O)NC(C#N)c1ccc(F)cc1` (stereo not drawn) [MBX-2627], the melting point was found to be 112 °C. The IC50 in series [1] amounted to 5.9 µM. For the same compound, the IC50 in series [2] stood at 11 µM. The CC50 at 3 days in series [3] (setting [4]) turned out to be 26 µM.
